Experimental findings from US8354414B2, “Substituted bicyclic pyrimidines” (Cephalon, Inc, priority 2006, dated 2013) are described below.

One experiment deals with T1, His6-GSK-3β (Homo sapiens, UniProt P49841).
T1 construct: made in house; host or cells: Sf21 insect cells (baculovirus)
In words: Inhibition of His6-GSK-3β kinase activity (ELISA-based format, time-resolved fluorescence readout). In kind it is biochemical. The following applies: read-out: GSK3β IC50. From the text:
Full-length GSK-3β was amplified from a sequence-verified I.M.A.G.E. EST acquired from Research Genetics (Invitrogen, Clone ID# CSODB003YJ02). The final sequence-verified cDNA contained the coding region for a NH2-terminal tag, which encoded for 6 histidines and then eight vector-encoded amino acids prior to the start of GSK3β, which contained by # 43-1342 of Genbank Accession # NM_002093, encoding amino acids #2-419. The predicted molecular weight of the tagged, 435 amino acid, full-length protein is 48.5 kDa. The major structural element of this protein is the kinase domain, which is from amino acids #56-340. Recombinant baculoviral DNA was prepared by transposition in E. coli (BAC-TO-BAC system: Invitrogen) and the virus generated and amplified in Sf21 insect cells. A suspension culture of Sf21 cells was infected at an MOI of 0.7 and cell density of 1.5×10^6 cells/mL in Excell 420 serum-free media (JRH BioScience) and harvested 65 h after infection. The 100,000×g supernatant solution was used for purification. Expression was confirmed by running samples on SDS-PAGE, followed by immunoblot analysis utilizing both a Penta-HIS antibody (Qiagen #34660) and a GSK-3α/GSK-3β antibody (Calbiochem #368662, data not shown). The His6-tagged protein was purified to in one step by Ni-NTA affinity chromatography.
Inhibitory effects of compounds on baculoviral GSK-3β kinase activity were evaluated using an ELISA-based format in a 384-well FluoroNunc Maxisorp plate (Cat # 460372) with a time-resolved fluorescence readout. Briefly, each plate was coated with 50 μl/well of 20 μg/ml substrate solution (recombinant GST-Rb) in Tris-buffered saline (TBS). The GSK-3β assay mixture (total volume=50 μl/well) consisting of 50 mM HEPES (pH 7.2), 20 μM ATP, 10 mM MgCl2, 5 mM EGTA, 25 mM β-glycerophosphate, 0.05% BSA, 2.5% DMSO, and various concentrations of test compound were then added to the assay plate. Enzyme (200 ng/ml His6-GSK-3β) was then added and the reaction was allowed to proceed at 37° C. for 30 minutes. Detection of the phosphorylated product was performed by adding 50 μl/well of phospho-Rb (Ser-780) antibody (Cell Signaling # 9307) diluted 1:10,000 in antibody dilution buffer (0.1% BSA in TBST). After 1-hour incubation at 37° C., 50 μl/well of Eu-N1 labelled anti-rabbit antibody (Wallac # AD0105; 1:50,000 in antibody dilution buffer) was added. Incubation at 37° C. then proceeded for 1 hour, followed by addition of 50 μl enhancement solution (Wallac #1244-105). The plate was gently agitated and after a few minutes, the fluorescence of the resulting solution was measured using a Multilabel Reader (Victor2 Model # 1420-018 or Envision Model 2100). Inhibition data were analyzed using ActivityBase and IC50 curves were generated using XLFit 3.0.5.
A general note: An ELISA detects its analyte on a solid surface through an enzyme-linked reagent.

For another experiment, the target named is T2, CDK5/GST-p25 (Homo sapiens, UniProt Q00535).
T2 construct: The final construct, encoding for full-length human CDK5; made in house; host or cells: Sf21 insect cells (baculovirus co-infection)
T2 sequence (Q00535 whole entry): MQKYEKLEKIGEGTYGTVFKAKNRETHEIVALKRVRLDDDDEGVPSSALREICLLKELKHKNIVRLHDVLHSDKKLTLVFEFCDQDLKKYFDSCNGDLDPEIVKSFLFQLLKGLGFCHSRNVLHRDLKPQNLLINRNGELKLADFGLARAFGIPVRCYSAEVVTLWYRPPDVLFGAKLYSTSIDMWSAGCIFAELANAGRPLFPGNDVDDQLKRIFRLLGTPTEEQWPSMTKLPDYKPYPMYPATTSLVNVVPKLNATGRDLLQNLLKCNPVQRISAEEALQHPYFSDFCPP
T2 sequence (Q15078 108-307 partner limits assumed): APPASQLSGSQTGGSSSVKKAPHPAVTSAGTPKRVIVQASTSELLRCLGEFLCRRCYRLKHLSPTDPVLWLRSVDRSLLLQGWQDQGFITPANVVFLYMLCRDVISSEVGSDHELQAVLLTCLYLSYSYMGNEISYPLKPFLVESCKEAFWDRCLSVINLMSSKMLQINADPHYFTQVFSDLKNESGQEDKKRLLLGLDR
Description: Inhibition of CDK5/GST-p25 kinase activity (ELISA with time-resolved fluorescence readout). The class given is biochemical. The protocol:
Two recombinant baculoviral constructs were created, one encoding for human CDK5 and the other encoding for human p25 with an amino-terminal glutathione-S-transferase (GST) tag. PCR amplification of full-length CDK5 was performed utilizing human brain cDNA as a template and Pfu Turbo polymerase (Strategene). The PCR product from this reaction was subcloned into the baculoviral expression vector pFASTBAC1 (Gibco/BRL). The final construct, encoding for full-length human CDK5 (base pairs 25-903 of GenBank Accession #NM_004935), is 292 amino acids long with a predicted MW of 33.3 kDa.
For p25, the active truncated form of p35, amino acids 108-307 were PCR-amplified from human fetal brain cDNA (Clontech QUICK-Clone cDNA) using the Advantage 2 PCR system (Clontech). The PCR product was subcloned into the baculoviral transfer vector pFBGSTP (an engineered derivative of the baculoviral transfer vector pFASTBAC1). The final baculoviral construct encodes for base pairs 419-1021 of GenBank Accession #NM_003885, with an amino-terminal GST tag. The expressed GST-p25 is 444 amino acids long with a predicted MW of 50.3 kDa.
The CDK5/GST-p25 complex was generated by coexpression. Sf21 cells were cultured in TNM-FHS media at a density of 1.5×10^6 cells/mL and infected with each recombinant virus at MOI values of 5 (for CDK5) and 10 (for GST-p25). The cells were harvested 40 h after infection. For purification, the 100,000×g supernatant solution was used. Expression was confirmed by running samples on SDS-PAGE, followed by immunoblot analysis utilizing antibodies against CDK5 (anti-CDK5 (268-283); Calbiochem #219449) and p35 (Santa Cruz #sc820). The CDK5/GST-p25 complex was purified by glutathione affinity chromatography.
Compounds were tested for their ability to inhibit the kinase activity of recombinant baculoviral CDK5/GST-p25 using an enzyme-linked immunosorbent assay (ELISA) with time-resolved fluorescence (TRF) readout. Briefly, each 384-well FluoroNunc Maxisorp plate (Cat # 460372) plate was coated with 50 μl/well of 50 μg/ml substrate solution (recombinant GST-Rb(773-928)) in Tris-buffered saline (TBS). The CDK5/GST-p25 assay mixture (total volume=50 μl/well) consisting of 20 mM HEPES (pH 7.2), 10 μM ATP, 10 mM MgCl2, 5 mM EGTA, 25 mM β-glycerophosphate, 0.05% BSA, 2.5% DMSO, and various concentrations of test compound were then added to the assay plate. Enzyme (2 ng/ml CDK5/GST-p25) was added and the reaction was allowed to proceed at 37° C. for 20 minutes. Detection of the phosphorylated product was performed by adding 50 μl/well of phospho-Rb (Ser-780) antibody (Cell Signaling # 9307) diluted 1:10,000 in antibody dilution buffer (0.1% BSA in TBST). After 1-hour incubation at 37° C., 50 μl/well of Eu-Nl labelled anti-rabbit antibody (Wallac # AD0105; 1:50,000 in antibody dilution buffer) was added. Incubation at 37° C. then proceeded for 1 hour, followed by addition of 50 μl enhancement solution (Wallac #1244-105). The plate was gently agitated and after a few minutes, the fluorescence of the resulting solution was measured using a Multilabel Reader (Victor2 Model # 1420-018 or Envision Model # 2100). Inhibition data were analyzed using ActivityBase and IC50 curves were generated using XLFit 3.0.5.

Where a name gives a salt, the structure may show the parent alone. Read-outs that look alike come from different tables or passages of the source. Bounds are passed on as bounds.

T1 sequence (P49841 2-419): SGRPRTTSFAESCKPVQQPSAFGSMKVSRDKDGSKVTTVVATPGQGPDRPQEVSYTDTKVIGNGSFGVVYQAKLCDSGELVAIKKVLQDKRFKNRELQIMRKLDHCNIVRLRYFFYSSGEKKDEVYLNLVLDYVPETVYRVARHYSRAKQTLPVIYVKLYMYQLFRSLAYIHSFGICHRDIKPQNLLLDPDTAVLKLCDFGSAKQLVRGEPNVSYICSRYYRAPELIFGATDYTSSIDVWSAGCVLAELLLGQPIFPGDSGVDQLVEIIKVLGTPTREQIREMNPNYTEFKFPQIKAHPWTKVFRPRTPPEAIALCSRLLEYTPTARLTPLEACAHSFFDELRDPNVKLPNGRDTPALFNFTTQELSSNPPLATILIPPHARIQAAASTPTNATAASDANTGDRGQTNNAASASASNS

In the case of `N#Cc1ccc2c(c1)C(c1nc(NCc3ccccn3)nc3c1CCC3)C(=O)N2` (stereo not drawn) [Example 349, 2-Oxo-3-{2-[(pyridin-2-ylmethyl)-amino]-6,7-dihydro-5H-cyclopentapyrimidin-4-yl}-2,3-dihydro-1H-indole-5-carbonitrile], the IC50 (as a rule, the concentration needed to halve the response being measured) on His6-GSK-3β (class symbols) was 300 to 3000 nM; on CDK5/GST-p25 (class symbols), less than 300 nM.
In the same order, the values of `N#Cc1ccc2c(c1)C(c1nc(NCc3ccc(C(F)(F)F)nc3)nc3nn(C4CCCC4)cc13)C(=O)N2` (stereo not drawn) [Example 173, 3-{2-Cyclopentyl-6-[(6-trifluoromethyl-pyridin-3-ylmethyl)-amino]-2H-pyrazolo [3,4-d]pyrimidin-4-yl}-2-oxo-2,3-dihydro-1H-indole-5-carbonitrile] are less than 300 nM and less than 300 nM.
As for `CCCn1cc2c(C3C(=O)Nc4ccc(Br)cc43)nc(NCCCNC)nc2n1` (stereo not drawn) [Example 201, 5-Bromo-3-[6-(3-methylamino-propylamino)-2-propyl-2H-pyrazolo [3,4-d]pyrimidin-4-yl]-1,3-dihydro-indol-2-one hydrochloride], the IC50 on His6-GSK-3β (class symbols) and against CDK5/GST-p25 (class symbols) was less than 300 nM in each case.
`CCN(CC)CCN(C)c1nc(C2C(=O)Nc3ccc(C#N)cc32)c2cn(C3CCCC3)nc2n1` (stereo not drawn) [Example 121, 3-{2-cyclopentyl-6-[(2-diethylamino-ethyl)-methyl-amino]-2H-pyrazolo [3,4-d]pyrimidin-4-yl}-2-oxo-2,3-dihydro-1H-indole-5-carbonitrile]: the figures for the half-inhibitory concentration (IC50) at His6-GSK-3β (class symbols) and at CDK5/GST-p25 (class symbols) were less than 300 nM and greater than 10000 nM, respectively.
For the compound `CCOCCn1cc2c(C3C(=O)Nc4ccc(Cl)cc43)nc(NCCc3cccnc3)nc2n1` (stereo not drawn) [Example 212, 5-Chloro-3-[2-(2-ethoxy-ethyl)-6-(2-pyridin-3-yl-ethylamino)-2H-pyrazolo [3,4-d]pyrimidin-4-yl]-1,3-dihydro-indol-2-one], the concentration for half-maximal inhibition (IC50) at His6-GSK-3β (class symbols) and against CDK5/GST-p25 (class symbols) was less than 300 nM in each case.
For `O=C1Nc2ccc(Cl)cc2C1c1nc(NCc2ccccn2)nc2c1CCC2` (stereo not drawn) [Example 330, 5-Chloro-3-{2-[(pyridin-2-ylmethyl)-amino]-6,7-dihydro-5H-cyclopentapyrimidin-4-yl}-1,3-dihydro-indol-2-one], the IC50 at His6-GSK-3β (class symbols) and against CDK5/GST-p25 (class symbols) was greater than 10000 nM each time.
`CC(C)Cn1cc2c(C3C(=O)Nc4ccc(Cl)cc43)nc(Cl)nc2n1` (stereo not drawn) [Example 273, 5-Chloro-3-(6-chloro-2-isobutyl-2H-pyrazolo [3,4-d]pyrimidin-4-yl)-1,3-dihydro-indol-2-one]: the IC50 is greater than 3000 nM on His6-GSK-3β (numeric bounds) and greater than 10000 nM at CDK5/GST-p25 (class symbols).
On to `CN1CCN(c2nc(C3C(=O)Nc4ccc(C#N)cc43)c3cn(C4CCCC4)nc3n2)CC1` (stereo not drawn) [Example 117, 3-(2-cyclopentyl-6-(4-methyl-piperazin-1-yl)-2H-pyrazolo[3,4-d]pyrimidin-4-yl)-2-oxo-2,3-dihydro-1H-indole-5-carbonitrile], for which the results for the 50% inhibitory concentration (IC50) on His6-GSK-3β (class symbols) and on CDK5/GST-p25 (class symbols) were less than 300 nM and 3000 to 10000 nM, respectively.
The corresponding values for `Cn1cc2c(C3C(=O)Nc4ccc(Br)cc43)nc(NCCc3cccnc3)nc2n1` (stereo not drawn) [Example 305, 5-Bromo-3-[2-methyl-6-(2-pyridin-3-yl-ethylamino)-2H-pyrazolo [3,4-d]pyrimidin-4-yl]-1,3-dihydro-indol-2-one] are less than 300 nM and less than 300 nM.
Regarding `O=C1Nc2ccc(F)cc2C1c1nc(NCc2ccncc2)nc2c1CCC2` (stereo not drawn) [Example 320, 5-Fluoro-3-{2-[(pyridin-4-ylmethyl)-amino]-6,7-dihydro-5H-cyclopentapyrimidin-4-yl}-1,3-dihydro-indol-2-one], the 50% inhibitory concentration (IC50) at His6-GSK-3β (numeric bounds) and at CDK5/GST-p25 (numeric bounds) was greater than 3000 nM each time.
On to `CCCCNc1nc(C2C(=O)Nc3ccc(C#N)cc32)c2cn(C3CCCC3)nc2n1` (stereo not drawn) [Example 116, 3-(6-butylamino-2-cyclopentyl-2H-pyrazolo [3,4-d]pyrimidin-4-yl)-2-oxo-2,3-dihydro-1H-indole-5-carbonitrile], for which the IC50 on His6-GSK-3β (class symbols) is less than 300 nM.
